From patent US9248111B2, “Therapeutic approaches for treating parkinson's disease” (PHARNEXT, priority 2011, dated 2016)
“Also recorded” adds a separate entry of the source.

Tests used:
[1] = tested on: dopaminergic neuron cell bodies of subtantia nigra pars compacta; experiment: Quantification of TH positive neurons in substantia nigra after 6-OHDA lesion; type: in vivo, rat; conditions: FIG. 16A: BCL-ACP 3.75 and 0.25 mg/kg bid; L-DOPA 8 mg/kg with benserazide 12.5 mg/kg; vs non-treated 6-OHDA rats
Protocol: (§1) Wistar rats (5 weeks) were used after an acclimatization period of at least 5 days. Surgery was performed under ketamine (50 mg/kg) and xylazine (10 mg/kg). Animals received an unilateral injection of 12 μg of 6-OHDA (sigma Aldrich) dissolved in 6 μl of 0.9% sterile NaCl containing 0.1% ascorbic acid (to protect 6-OHDA from oxidation), at the flow rate of 1 μl/min, in the left substantia nigra pars compacta. The stereotaxic coordinates of the injection site will be: anteroposterior+2.2 mm, lateral 2.0 mm, dorsoventral+3 mm with the incisor bar at +5.0 mm above the interaural plane, according to the rat stereotaxic atlas by De Groot (1959).
(§2) The first administration of treatment or vehicle has been performed the day before the stereotaxic injection of 6-OHDA (for the lesion groups) or vehicle and all along the 15 days preceding the behavioral tests. […] During the study and for each animal, the volume of per os administrations was determined on the basis of the mean body weight of the animals of the corresponding group. Body weights will be determined twice a week and the volume of administration will thus be adjusted consequently. […]
TH positive neurons were counted in a set of the three sections centered on the track of the 6-OHDA injection needle in the SN, covering almost all the SN. […] Cell counted is done using a microscope connected to a computer image analysis system by a CDD camera.

[2] = tested on: dopaminergic neuronal terminals in the left striatum; experiment: [3H]-mazindol labelling of dopaminergic terminals in striatum after 6-OHDA lesion; type: in vivo, rat; conditions: FIG. 16B: BCL-ACP 3.75 and 0.25 mg/kg bid; L-DOPA 8 mg/kg with benserazide 12.5 mg/kg; vs non-treated 6-OHDA rats
Protocol: as §1, §2
The loss of DA terminals in the striatum was assessed as an index of the extent of the dopaminergic denervation by analysis of [^3H]-mazindol binding to dopamine uptake sites. […]

SMILES: N[C@@H](Cc1ccc(O)c(O)c1)C(=O)O [L-DOPA, levodopa]
- number of dopaminergic neurons in the left (intoxicated) part of SN [1]: failed to inhibit; also recorded: not observed
- density of dopaminergic neuronal terminals in the left striatum (OD of [3H]-mazindol labelling) [2]: failed to inhibit; also recorded: not observed
